Experimental data as given in US20080200519A1, “TETRAHYDRONAPHTHALENYLAMIDES, A PROCESS FOR THEIR PRODUCTION AND THEIR USE AS ANTI-INFLAMMATORY AGENTS” (priority 2007, published 2008).
pIC50: −log10 of the molar value.

Legend:
androgen receptor (AR) = target: T1, androgen receptor (AR) (Homo sapiens, UniProt P10275); assay: binding to recombinantly produced androgen receptor
T1 construct: made in house
T1 sequence (P10275 1-920): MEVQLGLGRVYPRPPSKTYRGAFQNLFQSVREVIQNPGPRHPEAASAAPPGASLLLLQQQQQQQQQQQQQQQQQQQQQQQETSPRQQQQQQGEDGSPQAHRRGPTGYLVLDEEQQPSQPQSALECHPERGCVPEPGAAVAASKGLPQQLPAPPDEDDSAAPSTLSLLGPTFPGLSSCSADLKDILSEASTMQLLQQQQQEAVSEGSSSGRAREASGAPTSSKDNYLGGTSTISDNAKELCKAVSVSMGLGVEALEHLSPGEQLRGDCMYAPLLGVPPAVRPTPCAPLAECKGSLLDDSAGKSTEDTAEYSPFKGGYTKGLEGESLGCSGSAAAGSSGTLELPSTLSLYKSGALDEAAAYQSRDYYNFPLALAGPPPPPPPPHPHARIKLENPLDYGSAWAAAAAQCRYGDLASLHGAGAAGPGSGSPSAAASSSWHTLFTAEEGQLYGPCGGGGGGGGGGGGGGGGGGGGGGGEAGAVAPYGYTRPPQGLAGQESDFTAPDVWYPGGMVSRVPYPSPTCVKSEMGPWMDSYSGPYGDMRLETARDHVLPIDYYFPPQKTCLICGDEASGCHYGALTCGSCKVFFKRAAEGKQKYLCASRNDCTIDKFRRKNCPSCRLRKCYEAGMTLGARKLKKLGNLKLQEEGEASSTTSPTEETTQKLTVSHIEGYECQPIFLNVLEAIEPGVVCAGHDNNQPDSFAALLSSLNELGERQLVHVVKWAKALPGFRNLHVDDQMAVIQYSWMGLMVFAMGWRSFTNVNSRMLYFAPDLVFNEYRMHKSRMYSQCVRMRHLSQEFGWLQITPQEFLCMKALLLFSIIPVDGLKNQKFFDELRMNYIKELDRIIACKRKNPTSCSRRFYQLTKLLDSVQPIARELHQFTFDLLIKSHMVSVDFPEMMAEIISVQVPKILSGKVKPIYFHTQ
Excerpt: (§1) The binding of the substances to the glucocorticoid receptor (GR) and other steroid hormone receptors (mineral corticoid receptor (MR), progesterone receptor (PR) and androgen receptor (AR)) is examined with the aid of recombinantly produced receptors. Cytosol preparations of Sf9 cells, which had been infected with recombinant baculoviruses, which code for the GR, are used for the binding studies. In comparison to reference substance [^3H]-dexamethasone, the substances show a high to very high affinity to GR.

[1] = target: T2, mineral corticoid receptor (MR) (Homo sapiens, UniProt P08235); assay: binding to recombinantly produced mineral corticoid receptor
T2 construct: made in house
T2 sequence (P08235 1-984): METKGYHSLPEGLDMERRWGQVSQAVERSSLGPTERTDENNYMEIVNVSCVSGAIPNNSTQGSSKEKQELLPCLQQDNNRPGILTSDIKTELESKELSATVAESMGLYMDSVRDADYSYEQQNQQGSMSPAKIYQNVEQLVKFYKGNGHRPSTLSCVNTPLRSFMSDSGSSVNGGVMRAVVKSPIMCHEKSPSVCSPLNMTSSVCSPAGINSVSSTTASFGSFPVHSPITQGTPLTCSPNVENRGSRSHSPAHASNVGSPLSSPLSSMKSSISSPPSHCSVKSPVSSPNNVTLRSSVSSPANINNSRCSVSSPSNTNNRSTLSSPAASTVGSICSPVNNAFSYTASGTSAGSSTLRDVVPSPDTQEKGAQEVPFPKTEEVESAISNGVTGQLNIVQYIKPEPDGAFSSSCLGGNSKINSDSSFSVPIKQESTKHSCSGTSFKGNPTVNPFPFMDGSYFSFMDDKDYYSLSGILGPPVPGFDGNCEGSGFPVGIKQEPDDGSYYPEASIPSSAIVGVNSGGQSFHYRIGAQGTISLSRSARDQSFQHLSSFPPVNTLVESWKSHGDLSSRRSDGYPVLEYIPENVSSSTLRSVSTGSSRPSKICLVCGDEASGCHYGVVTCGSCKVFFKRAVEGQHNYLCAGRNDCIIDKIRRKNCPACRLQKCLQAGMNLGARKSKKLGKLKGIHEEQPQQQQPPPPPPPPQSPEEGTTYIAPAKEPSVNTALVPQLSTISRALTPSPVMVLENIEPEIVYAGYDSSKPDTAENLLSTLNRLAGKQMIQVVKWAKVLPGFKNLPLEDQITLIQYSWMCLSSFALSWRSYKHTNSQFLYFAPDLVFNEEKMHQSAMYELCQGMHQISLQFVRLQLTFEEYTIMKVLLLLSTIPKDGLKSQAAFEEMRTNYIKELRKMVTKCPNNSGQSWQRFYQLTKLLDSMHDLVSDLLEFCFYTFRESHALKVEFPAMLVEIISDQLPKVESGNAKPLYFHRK
Excerpt: as §1

[2] = test system: secretion of cytokine IL-8 in human monocyte cell line THP-1; assay: inhibition of LPS-triggered IL-8 secretion in THP-1 cells (ELISA); assay type: cell-based
Experimental: The concentration of the cytokines was determined in the supernatant by means of commercially available ELISA kits.

[3] = target: T3, glucocorticoid receptor (GR) (Homo sapiens, UniProt P04150); assay: binding to recombinantly produced glucocorticoid receptor, cytosol preparations of Sf9 cells, [3H]-dexamethasone as reference; conditions: recombinant GR
T3 construct: made in house; host or cells: Sf9 cells infected with recombinant baculovirus (cytosol preparation)
T3 sequence (P04150 1-777): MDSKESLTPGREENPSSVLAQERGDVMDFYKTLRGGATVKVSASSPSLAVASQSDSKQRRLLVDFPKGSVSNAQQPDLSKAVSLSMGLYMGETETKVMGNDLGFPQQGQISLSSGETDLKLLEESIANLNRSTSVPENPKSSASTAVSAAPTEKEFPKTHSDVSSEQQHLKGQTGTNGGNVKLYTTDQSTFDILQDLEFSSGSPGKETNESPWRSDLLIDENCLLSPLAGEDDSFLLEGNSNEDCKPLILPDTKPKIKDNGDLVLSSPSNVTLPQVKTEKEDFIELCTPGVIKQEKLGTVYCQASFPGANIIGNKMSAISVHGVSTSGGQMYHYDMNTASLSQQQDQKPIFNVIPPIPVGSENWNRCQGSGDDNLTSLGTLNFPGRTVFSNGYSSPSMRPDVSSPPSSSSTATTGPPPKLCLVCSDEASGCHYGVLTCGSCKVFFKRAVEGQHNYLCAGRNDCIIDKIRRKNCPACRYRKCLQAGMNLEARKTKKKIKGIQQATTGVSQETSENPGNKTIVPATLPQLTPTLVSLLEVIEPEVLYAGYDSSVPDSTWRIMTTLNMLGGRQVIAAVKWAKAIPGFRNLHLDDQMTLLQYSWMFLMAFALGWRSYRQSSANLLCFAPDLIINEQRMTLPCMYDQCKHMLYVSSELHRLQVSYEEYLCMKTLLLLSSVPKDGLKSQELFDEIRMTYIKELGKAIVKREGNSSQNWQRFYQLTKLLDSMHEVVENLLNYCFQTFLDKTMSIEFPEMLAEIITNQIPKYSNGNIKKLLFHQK
Excerpt: as §1

ER = assay: steroid receptor binding, ER
[4] = target: T4, progesterone receptor (PR) (Homo sapiens, UniProt P06401); assay: binding to recombinantly produced progesterone receptor
T4 construct: made in house
T4 sequence (P06401 1-933): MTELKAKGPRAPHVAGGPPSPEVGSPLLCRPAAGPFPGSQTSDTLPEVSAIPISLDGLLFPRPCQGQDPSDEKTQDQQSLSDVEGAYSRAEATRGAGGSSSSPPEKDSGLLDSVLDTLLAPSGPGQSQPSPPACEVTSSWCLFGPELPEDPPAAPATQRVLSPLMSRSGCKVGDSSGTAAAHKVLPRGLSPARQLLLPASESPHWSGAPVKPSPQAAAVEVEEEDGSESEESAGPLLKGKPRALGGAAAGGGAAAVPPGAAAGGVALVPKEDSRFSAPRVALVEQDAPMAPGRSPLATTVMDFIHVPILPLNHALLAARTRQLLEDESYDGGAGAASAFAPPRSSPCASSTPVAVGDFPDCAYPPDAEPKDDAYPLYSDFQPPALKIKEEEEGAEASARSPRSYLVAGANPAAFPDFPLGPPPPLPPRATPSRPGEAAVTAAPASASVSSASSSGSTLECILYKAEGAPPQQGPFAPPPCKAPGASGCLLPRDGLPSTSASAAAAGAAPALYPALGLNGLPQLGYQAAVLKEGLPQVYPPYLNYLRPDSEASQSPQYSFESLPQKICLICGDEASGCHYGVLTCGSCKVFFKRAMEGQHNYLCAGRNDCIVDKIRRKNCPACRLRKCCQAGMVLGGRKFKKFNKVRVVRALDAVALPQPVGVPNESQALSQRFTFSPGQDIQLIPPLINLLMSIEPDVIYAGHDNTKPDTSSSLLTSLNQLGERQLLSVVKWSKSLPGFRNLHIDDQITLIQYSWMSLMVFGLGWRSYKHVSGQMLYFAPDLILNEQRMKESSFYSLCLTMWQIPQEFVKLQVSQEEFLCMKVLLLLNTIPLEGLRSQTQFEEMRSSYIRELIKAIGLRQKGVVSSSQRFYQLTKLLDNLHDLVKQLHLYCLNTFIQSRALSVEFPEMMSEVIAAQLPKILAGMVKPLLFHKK
Excerpt: as §1

- pIC50 (androgen receptor (AR)): < 6.00
- pIC50 [1]: < 6.00
- pIC50 ([2]; Homo sapiens, read-out: IC50(IL8)): 8.15
- pIC50 [3]: 8.22
- pIC50 (ER): < 6.00
- pIC50 [4]: < 6.00
Structure (SMILES): COc1c(F)ccc2c1C(C)(C)C[C@](O)(C(F)(F)F)[C@H]2NC(=O)c1cnn(-c2ccc(F)cc2F)c1N (relative stereo) [Example 3, 5-Amino-1-(2,4-difluorophenyl)-N-[(cis)-6-fluoro-1,2,3,4-tetrahydro-2-hydroxy-5-methoxy-4,4-dimethyl-2-(trifluoromethyl)naphthalene-1-yl]-1H-pyrazole-4-carboxamide]
- eff. relative to dexamethasone ([2]; IL-8 inhibition): 96%
